This passage reports Km results from patent US5646249A, “Isolation and characterization of a novel chaperone protein” (The United States of America as represented by the …, priority 1994, dated 1997).

For this experiment, the target named is T1, human STCH, GST-STCH fusion protein representing STCH codons 4-471 (SEQ ID NO: 2) (Homo sapiens, UniProt P48723).
T1 construct: near full-length GST-STCH fusion protein, representing STCH codons 4-471; made in house; host or cells: E. coli HB101
T1 sequence (P48723 4-471): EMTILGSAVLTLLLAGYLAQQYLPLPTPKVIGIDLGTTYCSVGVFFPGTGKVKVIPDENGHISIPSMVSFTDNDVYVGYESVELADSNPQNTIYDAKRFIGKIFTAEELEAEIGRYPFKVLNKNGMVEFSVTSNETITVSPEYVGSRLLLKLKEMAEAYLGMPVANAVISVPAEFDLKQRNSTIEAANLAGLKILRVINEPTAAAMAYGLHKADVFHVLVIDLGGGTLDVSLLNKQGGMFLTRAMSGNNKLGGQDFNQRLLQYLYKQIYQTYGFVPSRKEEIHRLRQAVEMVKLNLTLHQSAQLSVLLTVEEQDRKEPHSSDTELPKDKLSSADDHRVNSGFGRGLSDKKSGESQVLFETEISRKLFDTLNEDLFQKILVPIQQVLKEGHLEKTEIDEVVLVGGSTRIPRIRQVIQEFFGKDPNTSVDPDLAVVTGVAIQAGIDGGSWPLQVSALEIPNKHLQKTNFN
Kind of experiment: ATPase assay of purified GST-STCH fusion protein. Conditions: read-out: Km for the unstimulated STCH ATPase (ATP); unstimulated (no peptide), 37° C., recombinant GST-STCH codons 4-471. The experiment is classed as biochemical. The method, then:
Inspection of the primary amino acid sequence of the STCH product predicts a functional ATPase molecule. ATPase activity was tested using a GST -Stch plasmid that encoded a functional fusion protein including STCH codons 4-471 (See Table II and SEQ ID NO: 1). A preferred strategy for preparing this fusion protein is provided in Example III and a preferred strategy for performing ATPase assays is provided in Example VI. To exclude contaminating sources of ATPase, the GST leader peptide and the GST-STCH affinity-purified fusion proteins were eluted off glutathione--Sepharose beads, then purified by anion-exchange chromatography (mono Q) and the protein composition of the column fractions was analyzed by SDS--PAGE. The peak ATPase activity of the GST --STCH product coincided with fractions 11 and 12. While no measurable ATPase activity was detected in fractions 11 and 12 from the GST leader sequence. These fractions were pooled from the GST--STCH sample and ATPase activity was measured in the presence or absence of two different peptides. […] The Km for the unstimulated STCH ATPase was 2-3 μM ATP and the measured ATPase activity was linear with respect to time and concentration over the range tested. […]

Consider `Nc1ncnc2c1ncn2[C@@H]1O[C@H](COP(=O)(O)OP(=O)(O)OP(=O)(O)O)[C@@H](O)[C@H]1O` [ATP], for which the Km is 2 to 3 µM.
